Measured values published in the NIST ThermoML archive (doi:10.1021/je5009119).
Numbers after ± are expanded uncertainties.

How the values were obtained:
[1] = 101.33 kPa, Liquid; for viscosity: Capillary tube (Ostwald / Ubbelohde) method; for mass density: Pycnometric method
[2] = mn = molality of the nth substance listed, in mol/kg; conditions: 101 kPa, Liquid; for viscosity: Capillary tube (Ostwald / Ubbelohde) method; for mass density: Pycnometric method

OCCO [1,2-ethanediol]
viscosity ([1]; 298.15 K): 16.2 ± 0.2 mPa·s | viscosity ([1]; 303.15 K): 14.1 ± 0.2 mPa·s | mass density ([1]; 303.15 K): 1106.6 ± 1.3 kg/m3 | viscosity ([1]; 308.15 K): 11.6 ± 0.1 mPa·s | viscosity ([1]; 313.15 K): 9.75 ± 0.11 mPa·s | mass density ([1]; 313.15 K): 1099.3 ± 1.3 kg/m3 | viscosity ([1]; 318.15 K): 7.91 ± 0.1 mPa·s

OCCO [1,2-ethanediol] + NC(N)=O
viscosity ([2]; 298.15 K, m2 = 0): 16.2 ± 0.2 mPa·s | viscosity ([2]; 303.15 K, m2 = 0): 14.1 ± 0.2 mPa·s | mass density ([2]; 303.15 K, m2 = 0): 1106.6 ± 1.3 kg/m3 | viscosity ([2]; 308.15 K, m2 = 0): 11.6 ± 0.1 mPa·s | viscosity ([2]; 313.15 K, m2 = 0): 9.75 ± 0.11 mPa·s | mass density ([2]; 313.15 K, m2 = 0): 1099.3 ± 1.3 kg/m3 | viscosity ([2]; 318.15 K, m2 = 0): 7.91 ± 0.1 mPa·s

NC(N)=O [urea] + OCCO
viscosity ([2]; 298.15 K, m1 = 0.877): 17 ± 0.2 mPa·s | viscosity ([2]; 298.15 K, m1 = 1.852): 18.5 ± 0.2 mPa·s | viscosity ([2]; 298.15 K, m1 = 2.939): 20.4 ± 0.3 mPa·s | viscosity ([2]; 298.15 K, m1 = 4.162): 22.1 ± 0.3 mPa·s | viscosity ([2]; 298.15 K, m1 = 5.549): 24 ± 0.3 mPa·s | viscosity ([2]; 298.15 K, m1 = 7.137): 25.7 ± 0.4 mPa·s | mass density ([2]; 298.15 K, m1 = 0.877): 1118.4 ± 1.5 kg/m3 | mass density ([2]; 298.15 K, m1 = 1.852): 1127.9 ± 1.7 kg/m3 | mass density ([2]; 298.15 K, m1 = 2.939): 1137.2 ± 1.9 kg/m3 | mass density ([2]; 298.15 K, m1 = 4.162): 1146.3 ± 2.1 kg/m3 | mass density ([2]; 298.15 K, m1 = 5.549): 1155.3 ± 2.4 kg/m3 | mass density ([2]; 298.15 K, m1 = 7.137): 1164.4 ± 2.6 kg/m3 | viscosity ([2]; 303.15 K, m1 = 0.877): 14.9 ± 0.2 mPa·s | viscosity ([2]; 303.15 K, m1 = 1.852): 16 ± 0.2 mPa·s | viscosity ([2]; 303.15 K, m1 = 2.939): 17.5 ± 0.2 mPa·s | viscosity ([2]; 303.15 K, m1 = 4.162): 18.8 ± 0.3 mPa·s | viscosity ([2]; 303.15 K, m1 = 5.549): 20.2 ± 0.3 mPa·s | viscosity ([2]; 303.15 K, m1 = 7.137): 21.5 ± 0.3 mPa·s | mass density ([2]; 303.15 K, m1 = 0.877): 1114.8 ± 1.5 kg/m3 | mass density ([2]; 303.15 K, m1 = 1.852): 1124.4 ± 1.7 kg/m3 | mass density ([2]; 303.15 K, m1 = 2.939): 1133.7 ± 1.9 kg/m3 | mass density ([2]; 303.15 K, m1 = 4.162): 1142.9 ± 2.1 kg/m3 | mass density ([2]; 303.15 K, m1 = 5.549): 1151.9 ± 2.4 kg/m3 | mass density ([2]; 303.15 K, m1 = 7.137): 1161.1 ± 2.6 kg/m3 | viscosity ([2]; 308.15 K, m1 = 0.877): 12.1 ± 0.2 mPa·s | viscosity ([2]; 308.15 K, m1 = 1.852): 13 ± 0.2 mPa·s | viscosity ([2]; 308.15 K, m1 = 2.939): 14.1 ± 0.2 mPa·s | viscosity ([2]; 308.15 K, m1 = 4.162): 15.1 ± 0.2 mPa·s | viscosity ([2]; 308.15 K, m1 = 5.549): 16.1 ± 0.2 mPa·s | viscosity ([2]; 308.15 K, m1 = 7.137): 17.1 ± 0.3 mPa·s | mass density ([2]; 308.15 K, m1 = 0.877): 1111.1 ± 1.5 kg/m3 | mass density ([2]; 308.15 K, m1 = 1.852): 1120.7 ± 1.7 kg/m3 | mass density ([2]; 308.15 K, m1 = 2.939): 1130 ± 1.9 kg/m3 | mass density ([2]; 308.15 K, m1 = 4.162): 1139.1 ± 2.1 kg/m3 | mass density ([2]; 308.15 K, m1 = 5.549): 1148.1 ± 2.4 kg/m3 | mass density ([2]; 308.15 K, m1 = 7.137): 1157.4 ± 2.6 kg/m3 | viscosity ([2]; 313.15 K, m1 = 0.877): 10.1 ± 0.1 mPa·s | viscosity ([2]; 313.15 K, m1 = 1.852): 10.8 ± 0.1 mPa·s | viscosity ([2]; 313.15 K, m1 = 2.939): 11.6 ± 0.2 mPa·s | viscosity ([2]; 313.15 K, m1 = 4.162): 12.4 ± 0.2 mPa·s | viscosity ([2]; 313.15 K, m1 = 5.549): 13.2 ± 0.2 mPa·s | viscosity ([2]; 313.15 K, m1 = 7.137): 13.9 ± 0.2 mPa·s | mass density ([2]; 313.15 K, m1 = 0.877): 1107.8 ± 1.5 kg/m3 | mass density ([2]; 313.15 K, m1 = 1.852): 1117.4 ± 1.7 kg/m3 | mass density ([2]; 313.15 K, m1 = 2.939): 1126.8 ± 1.9 kg/m3 | mass density ([2]; 313.15 K, m1 = 4.162): 1135.9 ± 2.1 kg/m3 | mass density ([2]; 313.15 K, m1 = 5.549): 1144.9 ± 2.4 kg/m3 | mass density ([2]; 313.15 K, m1 = 7.137): 1154.1 ± 2.6 kg/m3 | viscosity ([2]; 318.15 K, m1 = 0.877): 8.13 ± 0.1 mPa·s | viscosity ([2]; 318.15 K, m1 = 1.852): 8.68 ± 0.11 mPa·s | viscosity ([2]; 318.15 K, m1 = 2.939): 9.31 ± 0.13 mPa·s | viscosity ([2]; 318.15 K, m1 = 4.162): 9.86 ± 0.14 mPa·s | viscosity ([2]; 318.15 K, m1 = 5.549): 10.4 ± 0.2 mPa·s | viscosity ([2]; 318.15 K, m1 = 7.137): 11 ± 0.2 mPa·s | mass density ([2]; 318.15 K, m1 = 0.877): 1103.9 ± 1.5 kg/m3 | mass density ([2]; 318.15 K, m1 = 1.852): 1113.6 ± 1.7 kg/m3 | mass density ([2]; 318.15 K, m1 = 2.939): 1122.9 ± 1.9 kg/m3 | mass density ([2]; 318.15 K, m1 = 4.162): 1132.1 ± 2.1 kg/m3 | mass density ([2]; 318.15 K, m1 = 5.549): 1141 ± 2.4 kg/m3 | mass density ([2]; 318.15 K, m1 = 7.137): 1150.3 ± 2.6 kg/m3
